Values quoted from earlier work in patent US20210220357A1, “1,3-THIAZOL-2-YL SUBSTITUTED BENZAMIDES FOR THE TREATMENT OF DISEASES ASSOCIATED WITH NERVE FIBER SENSITIZATION” (Bayer Aktiengesellschaft, priority 2018, published 2021).

Test system: treated subjects
Conditions: Clinical Phase II trials, taste sensation via the tongue

taste disturbances: taste disturbances
Compound: COc1cc(C(C)C)c(Oc2cnc(N)nc2N)cc1S(N)(=O)=O [AF-219, 5-(2,4-diamino-pyrimidin-5-yloxy)-4-isopropyl-2-methoxy-benzenesulfonamide]
